The target of test [1] is T1, VvCHIL Q141A (Vitis vinifera, UniProt F6HC36, Q141A). Briefly: Quercetin fluorescence enhancement assay, VvCHIL Q141A. Type of test: binding. As to the method:
(§1) Fluorescence enhancement of quercetin (Thermo Scientific) was measured in the presence of VvCHIL and PpCHIL-A. The assays were performed in a buffer containing 25 mM Tris (pH 8.0), 150 mM NaCl, and 2% dimethyl sulfoxide (DMSO), used to solubilize quercetin. Protein concentrations were varied from 4.3 to 2250 μM relative to a constant concentration of quercetin (10 μM). After a binding equilibration period of 10 min at 25 °C, changes to the relative fluorescence intensity of quercetin (excitation 485 nm and emission 545 nm) were measured using a Vector X3 multimode plate reader (PerkinElmer). Background fluorescence from identical samples not containing quercetin was subtracted, and change-in-fluorescence data were fit using GraphPad Prism 9 (GraphPad Sofware, Inc) to a single-site binding equation in order to determine equilibrium dissociation constant (Kd) values.

Test [2] concerns the target T2, VvCHIL W221L (Vitis vinifera, UniProt F6HC36, W221L). Briefly: Quercetin fluorescence enhancement assay, VvCHIL W221L. Type of test: binding. The protocol: as §1
Test [3] concerns VvCHIL W221L. Described as above. Type of test: binding, Vitis vinifera. Particulars: VvCHIL W221L, fluorescence. The protocol:
as §1

Test [4] deals with T3, PpCHIL-A (Physcomitrium patens, UniProt A9T3E4). Briefly: Quercetin fluorescence enhancement assay, PpCHIL-A. As to conditions: fluorescence enhancement of 10 μM quercetin, protein titrated, 25 °C, pH 8.0. In kind it is binding, Physcomitrella patens. As to the method:
as §1

Test [5] deals with T4, VvCHIL (Vitis vinifera, UniProt F6HC36). Briefly: Quercetin fluorescence enhancement assay, VvCHIL. Type of test: binding. The protocol:
as §1

Test [6] concerns the target T5, PpCHIL-A L188W (Physcomitrium patens, UniProt A9T3E4, L188W). Briefly: Quercetin fluorescence enhancement assay, PpCHIL-A L188W. In kind it is binding, Physcomitrella patens. The protocol: as §1
Test [7] has as its target T4, VvCHIL. Briefly: Differential scanning fluorimetry (DSF) thermal shift, VvCHIL. Particulars: for effect on protein thermostability (thermal shift): high ligand concentration; for ΔTm: read-out: maximum thermal shift (ΔTmmax). In kind it is binding. An excerpt:
(§2) Differential scanning fluorimetry (DSF) is a sensitive and label-free method for measuring the Tm of a protein, defined as the temperature at which 50% of a protein sample is unfolded ([21]). Positive Tm changes have been used to measure binding between a CHIL protein and chalcones ([15]). To elucidate a broader scope of CHIL–chalcone interactions, DSF was used to determine the thermal shifts that occur to VvCHIL and PpCHIL-A upon binding naturally occurring chalcones containing different substitution patterns (Fig. 1).
(§3) Assays were performed using SYPRO orange dye (1:625 dilution) and 6 μM CHIL protein against dilution series of (2R/2S)-naringenin (Sigma–Aldrich), NC, 2ʹ,4,4ʹ-trihydroxychalcone (Indofine), 2,2ʹ,4ʹ-trihydroxychalcone (Indofine), and quercetin (Thermo Scientific). Reactions were run in 20 μl reaction volumes and in a buffer containing 150 mM NaCl, 25 mM Tris (pH 8.0), 2 mM DTT, and 2% DMSO. Because of low solubility, 2% DMSO was used for all reactions to enhance ligand solubility. Experiments were performed on a QuantStudio 3 Real-Time PCR and analyzed using Protein ThermalShift software (Thermo Fisher Scientific). Replicates of two to four experiments were conducted for each condition, and GraphPad Prism 9 was used to fit maximum thermal shift (ΔTmmax) and apparent Kd values.
A general note: In DSF a fluorescence change marks the thermal transition of the protein.

For test [8], the target named is T3, PpCHIL-A. Briefly: Differential scanning fluorimetry (DSF) thermal shift, PpCHIL-A. Type of test: binding, Physcomitrella patens. Particulars: for difference of apparent Kd relative to NC: PpCHIL-A; for ΔTm: read-out: maximum thermal shift (ΔTmmax).
Description: as §2, §3

For the next test, the system named is PpCHIL–PpCHS binding. Briefly: Protein pull-down assay, strep-PpCHS and untagged PpCHIL-A. Further details: species or system P. patens. As to conditions: 4.3 mM ligand. As to the method:
(§4) Protein pull-down assays were conducted using 1 mg of purified strep-tagged AtCHS or PpCHS and 0.3 ml StrepTactin Sepharose resin. The untagged purified VvCHIL or PpCHIL-A proteins was used as […] (0.5 mg). Binding reactions were incubated at room temperature either without ligand and 2% DMSO, or with the reported concentration of ligand and 2% DMSO. The StrepTactin resin was washed 4× with 1 ml of buffer in order to remove unbound protein prior to elution. Each wash buffer contained the reported concentration of ligand, 2% DMSO, 150 mM NaCl, 50 mM Tris (pH 8.0), and 2 mM DTT. Strep-CHS was eluted from the StrepTactin resin with 0.1 ml elution buffer, which contains 1 mM desthiobiotin, 2% DMSO, 150 mM NaCl, 50 mM Tris (pH 8.0), and 2 mM DTT. The pull-down assays were resolved using 15% acrylamide SDS-PAGE and native PAGE gels and imaged and quantified using Image Lab (Bio-Rad). About 50 mM of DTT was used in the native PAGE loading buffer.

Test [9] deals with T5, PpCHIL-A L188W. Briefly: DSF thermal shift, PpCHIL-A L188W variant. In kind it is binding, Physcomitrella patens. As to the method: as §3
Another test relates to VvCHIL–AtCHS binding. Briefly: Protein pull-down assay, strep-AtCHS and untagged VvCHIL. Further details: species or system Vitis vinifera / A. thaliana. Particulars: for effect on VvCHIL–AtCHS binding: increasing ligand concentrations, 2% DMSO. As to the method:
as §4

For the next test, the system named is PpCHS–PpCHIL-A L188W. Briefly: Protein pull-down assay, strep-PpCHS and PpCHIL-A L188W. Type of test: binding, P. patens. Particulars: 4.3 mM ligand. The protocol: as §4
Test [10] addresses T1, VvCHIL Q141A. Briefly: DSF thermal shift, VvCHIL Q141A variant. In kind it is binding. The protocol:
as §3

The target in another test is HlCHIL1. On the set-up: method as in PMID 29760092. As to conditions: measured by DSF; ref [15]; cited from earlier work.
Test [11] deals with T2, VvCHIL W221L. Briefly: DSF thermal shift, VvCHIL W221L variant. In kind it is binding. As to the method:
as §3

A further test addresses T6, MsCHI-II (Medicago sativa, UniProt P28012).
T6 construct: His8 (thrombin-cleavable) (N, cleaved yes); made in house; host or cells: E. coli BL21 DE3-pRIL
T6 sequence (P28012 1-222): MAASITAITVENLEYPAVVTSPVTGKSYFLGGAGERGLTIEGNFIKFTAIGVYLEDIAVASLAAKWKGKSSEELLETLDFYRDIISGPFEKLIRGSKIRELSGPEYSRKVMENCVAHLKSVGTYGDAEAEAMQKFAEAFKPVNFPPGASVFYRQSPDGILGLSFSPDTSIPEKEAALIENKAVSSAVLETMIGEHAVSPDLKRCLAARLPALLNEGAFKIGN
Briefly: Differential scanning fluorimetry (DSF) thermal shift, MsCHI-II. Type of test: binding. As to conditions: pH 8.0, 2% DMSO, read-out: apparent Kd.

Test [12] has as its target Chalcone isomerase-like protein from Vitis vinifera (VvCHIL) (Vitis vinifera). Briefly: SEC; HiPrep Sephacryl S-200 high-resolution column, 1 ml/min, 200 mM NaCl, 25 mM Tris pH 8.0, 2 mM DTT; His tags removed; masses against Bio-Rad standards.
The mark [13] stands for this setting: fluorescence enhancement of quercetin.
[14] abbreviates: DSF, 6 μM protein, pH 8.0, 2% DMSO.
[15] abbreviates: DSF, single-site fit, 6 μM protein, pH 8.0, 2% DMSO, read-out: apparent Kd.

Several values for one entry are separate records, joined by “and”; a condition that tells them apart may be missing. Equal entries are not always repeated.

T3 sequence (A9T3E4 entry or part of it): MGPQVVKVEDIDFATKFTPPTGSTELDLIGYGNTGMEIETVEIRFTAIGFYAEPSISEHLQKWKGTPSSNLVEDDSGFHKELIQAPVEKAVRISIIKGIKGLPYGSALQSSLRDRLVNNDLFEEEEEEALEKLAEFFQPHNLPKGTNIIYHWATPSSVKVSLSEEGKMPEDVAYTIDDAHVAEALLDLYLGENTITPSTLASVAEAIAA
T4 sequence (F6HC36 entry or part of it): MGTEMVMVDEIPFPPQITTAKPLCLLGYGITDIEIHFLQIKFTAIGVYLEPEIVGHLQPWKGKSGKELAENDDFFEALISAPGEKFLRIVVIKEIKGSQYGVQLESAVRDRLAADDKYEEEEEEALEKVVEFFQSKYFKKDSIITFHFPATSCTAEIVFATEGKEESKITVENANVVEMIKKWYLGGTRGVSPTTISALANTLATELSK
T1 sequence (F6HC36 entry or part of it Q141A): as the sequence (F6HC36 entry or part of it) above, with Q103A counted along it
T2 sequence (F6HC36 entry or part of it W221L): as the sequence (F6HC36 entry or part of it) above, with W183L counted along it
T5 sequence (A9T3E4 entry or part of it L188W): as the sequence (A9T3E4 entry or part of it) above, with L188W counted along it

Regarding `O=c1c(O)c(-c2ccc(O)c(O)c2)oc2cc(O)cc(O)c12` [quercetin], the “change of binding relative to wildtype VvCHIL” value at VvCHIL Q141A [1] (fluorescence) is “not significantly altered”. Besides, the Kd is 403 ± 59 µM at VvCHIL Q141A [1] (setting [13]); 612 ± 167 µM on VvCHIL W221L [2]; 240 ± 121 µM at PpCHIL-A [4]; 347 ± 35 µM on VvCHIL [5] (fluorescence enhancement of 10 μM quercetin, protein titrated, 25 °C, pH 8.0); 582 ± 282 µM on PpCHIL-A L188W [6] (setting [13]). In the test with VvCHIL W221L [3], the “reduction of binding relative to wildtype VvCHIL” value is “approximately twofold”. Also, the “fraction of VvCHIL bound” value on VvCHIL [5] (750 μM quercetin, based on the Kd value for VvCHIL) worked out at 0.68. Further, the “reduction of binding affinity relative to wildtype PpCHIL-A” value at PpCHIL-A L188W [6] (fluorescence) is reported as “approximately twofold”. In addition, the “ligand concentration that induces a negative thermal shift” value on VvCHIL [7] (VvCHIL, DSF) was “above 750 μM”. Moreover, the “effect on protein thermostability (thermal shift)” value at VvCHIL [7] (VvCHIL, DSF) is recorded as “destabilizes”.

In the case of `O=C(/C=C/c1ccc(O)cc1)c1ccc(O)cc1O` [2ʹ,4,4ʹ-trihydroxychalcone], the Kd on PpCHIL-A [8] was 41 ± 10 µM; at VvCHIL [7], 127 ± 51 µM. In addition, the “difference of apparent Kd relative to NC” value at PpCHIL-A [8] (DSF) is reported as “does not bind with an appreciable difference”. The “fold difference of apparent Kd relative to NC (NC smaller)” value at VvCHIL [7] (VvCHIL, DSF) is recorded as “approximately 5 fold”.

In the case of `O=C(/C=C/c1ccc(O)cc1)c1c(O)cc(O)cc1O` [NC, 2ʹ,4,4ʹ,6ʹ-tetrahydroxychalcone], the “PpCHIL-A in the strep-PpCHS–bound fraction” value in the test with PpCHIL–PpCHS binding is listed as “strongly enriched”. Further, the Kd is 18 ± 6 µM at PpCHIL-A L188W [9]; 58 ± 16 µM at PpCHIL-A [8] (setting [15]); 16 ± 2 µM on VvCHIL Q141A [10]; 43 µM on HlCHIL1; 24 ± 5 µM on VvCHIL [7] (setting [15]); 17 ± 4 µM at VvCHIL W221L [11]. Further, the “increase of apparent binding affinity over wildtype PpCHIL-A” value on PpCHIL-A L188W [9] (PpCHIL-A L188W, DSF) was “approximately threefold”. The “effect on VvCHIL–AtCHS binding” value with VvCHIL–AtCHS binding was “enhances binding”. The ΔTm on PpCHIL-A [8] (setting [14]) was 1.7 ± 0.2 °C; at VvCHIL [7] (setting [14]), 3.5 ± 0.2 °C. Also, the “pull-down of PpCHIL-A L188W by PpCHS” value in the test on PpCHS–PpCHIL-A L188W was “enhanced”. Further, the ΔTmmax in the test on HlCHIL1 was 6.4 °C.

Regarding `O=C1C[C@@H](c2ccc(O)cc2)Oc2cc(O)cc(O)c21` [naringenin], in the test with PpCHIL–PpCHS binding, the “PpCHIL-A in the strep-PpCHS–bound fraction” value is recorded as “observed in the bound fractions”. Also, the Kd at PpCHIL-A L188W [9] is 180 ± 81 µM; at PpCHIL-A [8] it was 762 ± 39 µM; on MsCHI-II, 1020 µM and 1050 µM. Also, the “increase of apparent binding affinity over wildtype PpCHIL-A” value at PpCHIL-A L188W [9] (PpCHIL-A L188W, DSF) was “approximately fourfold”. Besides, the “reduction of thermal stabilization relative to wildtype PpCHIL-A” value at PpCHIL-A L188W [9] (PpCHIL-A L188W, DSF) was “approximately 2 °C”. Besides, the “VvCHIL band in the strep-AtCHS–bound fraction” value with VvCHIL–AtCHS binding (4.30 mM ligand) is given as “below the threshold of detection”. For the same molecule, the “effect on VvCHIL–AtCHS binding” value in the test with VvCHIL–AtCHS binding was “increasingly disrupted”. The “pull-down of PpCHIL-A L188W by PpCHS” value in the test with PpCHS–PpCHIL-A L188W was “similarly in the presence and absence of naringenin”. Besides, the “thermal destabilization by ligand” value at VvCHIL Q141A [10] (VvCHIL Q141A, DSF) is listed as “does not undergo thermal destabilization”; on VvCHIL W221L [11] (VvCHIL W221L, DSF), “does not undergo thermal destabilization”. On VvCHIL [7] (VvCHIL, DSF), the “effect on protein thermostability (thermal shift)” value is on record as “reduced protein Tms at high naringenin concentrations”.

For “Chalcone isomerase-like protein from Vitis vinifera (VvCHIL) (natural protein)”, the stoichiometry N in [12] was 3.

Regarding `O=C(/C=C/c1ccccc1O)c1ccc(O)cc1O` [2,2ʹ,4ʹ-trihydroxychalcone], the ΔTm at PpCHIL-A [8] (setting [14]) turned out to be 2.7 ± 0.2 °C; on VvCHIL [7] (setting [14]), 3.3 ± 0.7 °C. The Kd was determined as 85 ± 23 µM at PpCHIL-A [8] (setting [15]) and 286 ± 23 µM on VvCHIL [7] (setting [15]). The “difference of apparent Kd relative to NC” value at PpCHIL-A [8] (DSF) was “twofold greater”. At VvCHIL [7] (VvCHIL, DSF), the “fold difference of apparent Kd relative to NC (NC smaller)” value is listed as approximately 11 fold.

Usually stoichiometry N stands for the number of molecules, sites or subunits per partner or assembly.

Source of the values: PMC10276294, “Regulatory ligand binding in plant chalcone isomerase–like (CHIL) proteins” (The Journal of Biological Chemistry, 2023).
